# How the values were obtained:
# [1] = biological target: T1, h-STING (Homo sapiens, UniProt Q86WV6, G230A/R293Q/R71H); assay: THP1-Dual reporter activation fold; assay type: cell-based
# T1 construct: THP1-Dual Fold (10 μM); endogenous in cells; host or cells: THP1-Dual
# [2] = biological target: T2, m-STING (Mus musculus, UniProt Q3TBT3); assay: Raw-lucia reporter activation fold; assay type: cell-based
# T2 construct: Raw-lucia Fold (50 μM); endogenous in cells; host or cells: RAW-Lucia
# T2 sequence (Q3TBT3 1-378): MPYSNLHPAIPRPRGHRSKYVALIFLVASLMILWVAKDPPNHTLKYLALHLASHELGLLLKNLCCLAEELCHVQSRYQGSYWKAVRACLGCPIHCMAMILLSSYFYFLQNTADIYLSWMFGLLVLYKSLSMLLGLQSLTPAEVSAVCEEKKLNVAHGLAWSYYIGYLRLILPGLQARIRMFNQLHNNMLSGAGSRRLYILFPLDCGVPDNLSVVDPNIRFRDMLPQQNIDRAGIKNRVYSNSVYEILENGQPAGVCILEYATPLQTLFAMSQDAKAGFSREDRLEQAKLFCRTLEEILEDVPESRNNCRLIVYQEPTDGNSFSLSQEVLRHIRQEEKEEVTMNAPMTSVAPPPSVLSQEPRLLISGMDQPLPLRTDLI
# [3] = Metabolite profiling in liver microsomes, 60 min incubation; assay type: in vitro ADME, human; conditions: D166 incubated 60 min; selected ion chromatographic peak areas
# [4] = tested on: pancreatic tumor organoids; assay: Pancreatic tumor organoid viability (AO/PI staining, CellTiter-Glo 3D); assay type: cell-based, human
# Source text: Pancreatic tumor organoids were derived from patients diagnosed with pancreatic ductal adenocarcinoma at Ruijin Hospital, affiliated with Shanghai Jiao Tong University School of Medicine. Inclusion criteria required a confirmed histopathological diagnosis of pancreatic ductal adenocarcinoma and the absence of prior neoadjuvant treatment. After obtaining informed consent from the patients, tumor tissues were excised during surgery and preserved in a tissue preservation solution (Absin). The tumor samples were promptly minced into small fragments in pre-chilled RPMI-1640 and digested for 20 minutes at 37°C using the Human Tumor Dissociation Kit (Miltenyi Biotec). The resulting single-cell suspension was filtered through a 100-µm mesh (Falcon) and seeded onto Matrigel (Corning). Following a 30-minute incubation at 37°C, OM12 (Omabio) complete organoid medium was added around the periphery of the Matrigel. The tissue-derived cells successfully grew in a three-dimensional format. The viability of the organoids was assessed using CellTiter-Glo® 3D Cell Viability Assay (Promega) reagents. […] Luminescence was subsequently measured using the BioTek Synergy LX multimode reader (Agilent). […] Acridine orange (AO) binds to the nuclei of all cells, emitting green fluorescence, while propidium iodide (PI) penetrates the cell membrane to stain dead cells red. […]
# [5] = tested on: cGAS-STING pathway; assay: cGAS-STING pathway, IFN-β and ISG readout in pancreatic cancer organoids; assay type: cell-based, human
# Procedure: (§1) Tumor tissues or cells were thoroughly lysed in RIPA buffer containing protease and phosphatase inhibitors. The lysates were then centrifuged to collect the supernatant. Proteins were separated by electrophoresis in MOPS buffer and subsequently transferred onto a PVDF membrane. After blocking, the membrane was sequentially incubated with the primary antibody, secondary antibody, and chemiluminescent substrate (ECL) for imaging.
# RNA from tumor tissues or cells was extracted using the SteadyPure Universal RNA Extraction Kit (Accurate Biology) and reverse transcribed into cDNA with the Evo M-MLV Reverse Transcription Kit (Accurate Biology). Relative RNA expression levels were quantified using 2X Universal SYBR Green Fast qPCR Mix (Abclonal), and the results were recorded on the qTOWER®3 84 Real-Time PCR system.
# (§2) Multiplex cytokine detection was performed using Luminex cytokine bead array technology provided by WayenBio, Shanghai. In the mouse tumor model, levels of multiple cytokines were simultaneously measured and normalized to tumor weight. For the quantification of specific cytokines, such as IL-6 and IFN-β, enzyme-linked immunosorbent assay (ELISA) kits from Abclonal were used. The assays were conducted according to the manufacturer's instructions.
# [6] = tested on: STING and downstream signaling molecules; assay: STING pathway western blot in Panc-1 cell line; assay type: cell-based; conditions: human pancreatic cell line Panc-1
# Procedure: as §1
# (§3) Western Blot showing cGAS-STING pathway protein expression of Panc-1 cell line
# (§4) (B) CCK8 of Panc-1 cell line when
# (§5) (C-D) Representative image (C) and statistic (D) of […]
# [7] = tested on: Panc-1 cell line; assay: CCK8 and colony assay of Panc-1 cell line; assay type: cell-based, human; conditions: Panc-1, 10μM D166, CCK8 and colony assay
# Source text: as §3, §4, §5
# [8] = tested on: subcutaneous pancreatic tumor; assay: Subcutaneous pancreatic tumor model; assay type: in vivo, C57BL/6 mice
# Procedure: C57BL/6 mice were obtained from Phenotek (Shanghai) and randomly assigned to groups, with a minimum of six mice per group. For the subcutaneous tumor model, approximately 5 × 10^5 tumor cells were suspended in 150 μL PBS and injected into the left flank of the mice. Tumor size was measured every four days starting from day 7 post-injection. On days 9, 12, and 15, the mice were administered three different concentrations of the drug via peritumoral injection, while the Control group received only the solvent. The mice were euthanized on day 25, and tumors were excised, weighed, and further analyzed.
# as §2
# [9] = tested on: pancreatic tumor organoids co-cultured with T cells or macrophages; assay: Co-culture of pancreatic tumor organoids and immune cells; assay type: cell-based, human
# Procedure: T cells and monocytes were isolated from the peripheral blood of patients using the EasySep™ Human CD8+ T Cell Isolation Kit and Human Monocyte Isolation Kit ([…]). CD8+ T cells were activated with anti-CD3 (5 μg/mL) and anti-CD28 (5 μg/mL) antibodies (BioLegend), while monocytes were stimulated with 50 ng/mL of M-CSF (BioLegend) for 6 days to induce differentiation into macrophages. […] On day 5, immune cells were harvested for flow cytometry analysis. Tumor organoids were photographed, viability was assessed, and organoids were embedded for HE and IHC staining at days 0, 5, and 10 of co-culture.
# Mouse tumors were digested using the Mouse Tumor Dissociation Kit (Miltenyi Biotec) according to the manufacturer's protocol. The resulting single-cell suspension was filtered through a 70-micron mesh to ensure a homogeneous cell population. Cells were stained with fluorescently labeled antibodies for flow cytometry at 4°C on ice for 30 minutes. After washing off unbound antibodies, fluorescence was detected using a Beckman CytoFlex S flow cytometer. For co-cultured immune cells, separated T cells and macrophages were similarly stained with flow cytometry antibodies. For cytokine staining, cells were pre-stimulated with the eBioscience™ Cell Stimulation Cocktail for 4 hours. For intracellular protein staining, after surface staining, cells were fixed and permeabilized using the BD Cytofix/Cytoperm™ Fixation/Permeabilization Kit, followed by staining for intracellular proteins. Flow cytometry data were analyzed using FlowJo 10 software.
# T1 sequence (Q86WV6 whole entry R71H/G230A/R293Q): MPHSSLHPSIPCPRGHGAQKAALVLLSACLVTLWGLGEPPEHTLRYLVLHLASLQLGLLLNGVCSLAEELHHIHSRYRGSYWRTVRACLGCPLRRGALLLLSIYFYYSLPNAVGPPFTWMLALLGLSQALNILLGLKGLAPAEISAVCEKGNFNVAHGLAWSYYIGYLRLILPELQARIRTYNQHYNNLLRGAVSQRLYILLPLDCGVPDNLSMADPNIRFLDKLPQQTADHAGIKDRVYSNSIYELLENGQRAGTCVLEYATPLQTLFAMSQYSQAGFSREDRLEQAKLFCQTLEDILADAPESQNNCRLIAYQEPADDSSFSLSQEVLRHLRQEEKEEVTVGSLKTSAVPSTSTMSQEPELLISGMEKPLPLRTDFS
structure (smiles),measurement,setting,value
[2H]C([2H])([2H])Oc1cc2cc(C(=O)CCC(=O)O)sc2cc1OC([2H])([2H])[2H] [D166],THP1-Dual Fold (10 μM),[1],60.46 Fold
same,Raw-lucia Fold (50 μM),[2],25.34 Fold
same,Relative Peak Area Abundance (%) HLM,[3],98.5%
same,viability of pancreatic tumor organoids,[4]; increased concentration of D166,decreased viability
same,"inhibiting organoid viability compared with ADU-S100, MSA-2, SR-717, MK-1454 and DXMAA","[4]; organoids, 10μM",better efficacy
same,"activating IFN-stimulated genes (ISGs) compared with ADU-S100, MSA-2, SR-717, MK-1454 and DXMAA","[5]; organoids, 10μM",better efficacy
same,activation of the cGAS-STING pathway and induction of IFN-β,"[5]; pancreatic cancer organoids, different concentration and duration",time- and dose-dependent effect
same,activation of STING and downstream signaling molecules,[6],dose- and time-dependent manner
same,proliferation,[7],without affecting proliferation
same,"IL-6, IFN-β, and TNF-α levels in the TME","[8]; higher D166 doses, ELISA",increased
same,tumor growth,"[8]; peritumoral injection, different doses",significant dose-dependent inhibitory effect
same,antitumor efficacy compared with other STING agonists,"[8]; tumor weight, Figure S4A",comparable to that of other STING agonists
same,size and viability of pancreatic cancer organoids,"[9]; CTG assay, days 0, 5, 10 of co-culture",significant reduction
same,"IL-6, IFN-β, IFN-γ, and TNF-α levels","[9]; culture medium, ELISA",significantly increased
same,IFNG and GZMB release from T cells,[9]; flow cytometry,marked increase
same,mean fluorescence intensities (MFI) of CD86 and CD80 (M1 markers) in macrophages,[9]; flow cytometry,significantly increased
same,mean fluorescence intensities (MFI) of CD163 and CD206 (M2 markers) in macrophages,[9]; flow cytometry,significantly decreased
